Test results: patent publication US7906551B2 (Rottapharm S.p.A., priority 2006, dated 2011)
Where two headings read alike, the source gives them in different places. Values belong to the compound of their own block, whether it stands above or below them.

Experiments:
[1] = molecular target: T1, COX-2 (Mus musculus, UniProt Q05769); details: Table 1, reported by reference; cited from earlier work
T1 construct: lipopolysaccharide (LPS, 10 μg/mL) to induce COX-2; endogenous in cells; host or cells: J774 murine monocyte/macrophage cell line, LPS-stimulated
T1 sequence (Q05769 18-604): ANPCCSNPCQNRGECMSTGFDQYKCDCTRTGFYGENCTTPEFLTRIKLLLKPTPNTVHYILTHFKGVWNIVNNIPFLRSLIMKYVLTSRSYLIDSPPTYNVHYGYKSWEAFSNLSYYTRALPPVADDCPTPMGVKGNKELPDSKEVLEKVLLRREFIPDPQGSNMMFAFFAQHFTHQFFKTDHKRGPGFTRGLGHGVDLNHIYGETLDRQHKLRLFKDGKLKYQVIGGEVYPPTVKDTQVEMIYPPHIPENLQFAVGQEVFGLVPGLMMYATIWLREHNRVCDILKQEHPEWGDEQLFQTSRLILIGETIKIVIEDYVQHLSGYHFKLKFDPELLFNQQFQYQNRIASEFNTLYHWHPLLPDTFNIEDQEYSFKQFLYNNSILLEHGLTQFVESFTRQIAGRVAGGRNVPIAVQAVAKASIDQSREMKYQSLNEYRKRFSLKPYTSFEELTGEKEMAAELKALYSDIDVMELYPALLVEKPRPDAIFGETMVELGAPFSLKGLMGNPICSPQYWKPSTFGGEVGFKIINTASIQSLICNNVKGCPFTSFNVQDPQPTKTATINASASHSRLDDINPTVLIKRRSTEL

[2] = molecular target: T2, COX-1 (Mus musculus, UniProt P22437); details: Table 1, reported by reference; cited from earlier work
T2 construct: endogenous in cells; host or cells: J774 murine monocyte/macrophage cell line
T2 sequence (P22437 27-602): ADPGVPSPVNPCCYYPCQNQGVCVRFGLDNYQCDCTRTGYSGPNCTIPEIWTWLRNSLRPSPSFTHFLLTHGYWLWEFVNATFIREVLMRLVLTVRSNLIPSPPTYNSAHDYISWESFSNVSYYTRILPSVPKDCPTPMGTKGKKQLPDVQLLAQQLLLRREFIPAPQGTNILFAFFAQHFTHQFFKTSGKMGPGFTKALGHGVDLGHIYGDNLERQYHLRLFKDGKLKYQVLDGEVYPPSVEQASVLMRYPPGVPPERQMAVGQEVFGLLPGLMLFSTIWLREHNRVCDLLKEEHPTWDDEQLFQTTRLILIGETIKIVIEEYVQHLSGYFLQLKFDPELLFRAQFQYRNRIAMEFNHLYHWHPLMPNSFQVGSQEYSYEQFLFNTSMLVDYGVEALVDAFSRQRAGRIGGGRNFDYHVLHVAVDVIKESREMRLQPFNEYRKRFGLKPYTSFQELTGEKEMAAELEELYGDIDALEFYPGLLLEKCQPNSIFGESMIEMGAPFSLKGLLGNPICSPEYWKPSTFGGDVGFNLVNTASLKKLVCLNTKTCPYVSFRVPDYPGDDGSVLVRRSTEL

[3] = test system: rat model of hyperalgesia induced by carragenine; assay: Paw pressure test, hyperalgesia induced by carragenine; type: in vivo; details: 20 mg/Kg
Experimental: (§1) Male Swiss albino mice (23-25 g) and Sprague Dawley or Wistar rats (150-200 g) were used. The animals were fed a standard laboratory diet and tap water ad libitum and kept at 23±1° C. with a 12 h light/dark cycle, light on at 7 a.m.
The nociceptive threshold in the rat was determined with an analgesimeter, according to the method described by Leighton et al, G. E.; Br. J. Pharmacol. 1988, 93, 553-560. Threshold pressure was measured before and 30, 60 and 120 min after treatment. An arbitrary cut-off value of 250 g was adopted. In order to induce an inflammatory process in the rat paw carrageenan (0.1 ml, 1%) was administered i.p. 4 h before test.

[4] = test system: rat model of edema induced by carragenine; assay: Carrageenan-induced paw edema; type: in vivo; details: 1 h, 60 min, 20 mg/Kg, read-out: Edema inhibition 60 min, MPE
Experimental: as §1
Rats paw volumes were measured using a plethysmometer. Rats received the investigated compounds 4 hours after a 0.1-ml injection of 1.0% carrageenan in the right hind paw. Five hours after the injection of carrageenan (i.e. 1 hour after the administration of the investigated compound), the paw volume of the right hind paw was measured and compared with saline/carrageenan-treated controls. Results are reported as maximum percent effect (MPE), see below for detailed explanation.

[5] = molecular target: T1, COX-2; assay: Assessment of COX-2 activity in LPS-stimulated J774 cells (PGE2 radioimmunoassay); type: cell-based, murine
Experimental: Cells were stimulated for 24 h with E. coli lipopolysaccharide (LPS, 10 μg/mL) to induce COX-2, in the absence or presence of test compounds, at the concentrations previously reported. The supernatants were collected for the measurement of PGE2 by radioimmunoassay.
(§2) Analysis. Throughout the time the experiments lasted, triplicate wells were used for the various conditions of treatment. Results are expressed as the mean, for 3 experiments, of the % inhibition of PGE2 production by test compounds with respect to control samples. Data fit was obtained using the sigmoidal dose-response equation (variable slope). The IC50 were calculated by GraphPad Instat program (GraphPad software).

[6] = test system: rat model of edema induced by Zymosan; assay: Zymosan-induced paw edema; type: in vivo; details: oral, 4 mg/Kg
Experimental: as §1
(§3) The interplantar injection of Zymosan-induced mechanical hyperalgesia may be used as a model of inflammatory pain (Meller, Neuropharmacology, 1994, 33, 1471-1478). In this model, typically a male Sprague-Dawely or Wistar rat (200-250 g) receives an interplantar injection of 4 mg/100 μl zymosan into one hind paw. A marked inflammation occurs in this hind paw. Drugs are administered orally for evaluation of efficacy, 30 min. before the inflammatory insult. The hyperalgesia induced by zymosan administration was evaluated using the Randal-Selitto method (Arch. Int. Pharmacodyn., 1957, 111, 409). The quantitation of the analgesic effect is achieved by an analgesimeter, which consist in applying to the inflamed paw an increasing weight (from 130-140 g up to 500 g). The difference in the mechanical pain threshold between the basal value (generally 230-250 g) and the one tolerated by the animals treated with the drug, determined 4 hours after the inflammatory challenge, is defined as mechanical hyperalgesia.
In vivo anti-inflammatory effect exerted by the compounds of the invention can be assessed in the same Zymosan induced inflammation test described above, by measuring the volume of the oedema induced by the inflammatory agent. The oedema was evaluated as the increase in the volume of the Zymosan injected paw within a time of 0-2 hrs. The measurements of the variation of the oedema volume of the paw were recorded using hydroplethysmometer. Results are expressed as MPE, maximum percent effect, that in this case represents the reduction (%) in the oedema of treated animals in comparison to controls (animals treated with Zymosan, which received only the vehicle).

[7] = test system: rat model of hyperalgesia induced by Zymosan; assay: Zymosan-induced hyperalgesia (Randal-Selitto); type: in vivo; details: oral, 4 mg/Kg
Experimental: as §1, §3
Mechanical hyperalgesia is expressed for the compounds of the invention as maximum percent effect (MPE) which represents the difference (%) in pain threshold between the animals treated with the drug and the controls that received only the vehicle.
Results are reported as MPE (reduction of the nociceptive effect, due to paw loading with increasing weight, in comparison to controls). 100% MPE means that the animal treated with the compound and Zymosan can tolerate the same stimulus (weight) as the control animals which have not received Zymosan treatment. MPE higher than 100% mean that the animal treated with the compound and Zymosan can tolerate stimuli (weight) higher than the control animals, which has not received Zymosan treatment (hypoalgesia).

[8] = molecular target: T2, COX-1; assay: Assessment of COX-1 activity in J774 cells (arachidonic acid, PGE2 radioimmunoassay); type: cell-based, murine; details: Table 8, Formula I-c
Experimental: Stock solutions of the reference standard or of the test compounds were prepared in dimethyl sulphoxide, and an equivalent amount of dimethyl sulphoxide was included in control samples. At the end of the incubation the supernatants were collected for the measurement of PGE2 by radioimmunoassay.
as §2

[9] = 0.5 h, 30 min, read-out: Analgesia 30 min MPE
[10] = 1 h, 60 min, read-out: Analgesia 60 min MPE
[11] = read-out: in vitro COX-2 inhibitory potency IC50
[12] = Table 8, Formula I-c, read-out: COX-2 IC50

SMILES: CCOC(=O)C(O)c1cc(-c2ccc(S(C)(=O)=O)cc2)n(-c2ccccc2)c1C (racemic) [Example 7, Ethyl[2-hydroxy-2-[2-methyl-5-(4-methylsulphonyl)phenyl-1-phenyl-1H-pyrrol-3-yl]]acetate]
melting point: 145 °C

SMILES: CCOC(=O)C(O)c1cc(-c2ccc(S(C)(=O)=O)cc2)n(-c2ccc(OC)cc2)c1C (racemic) [Example 8, Ethyl[2-hydroxy-2-[1-(4-methoxy)phenyl-2-methyl-5-(4-methylsulphonyl)phenyl-1H-pyrrol-3-yl]]acetate]
melting point: 130 °C

SMILES: Cc1c(CC(=O)O)cc(-c2ccc(S(C)(=O)=O)cc2)n1-c1ccccc1 [Compound 1a, 2-[2-methyl-5-(4-methylsulphonyl)phenyl-1-phenyl-1H-pyrrol-3-yl]acetic acid]
COX-1/COX-2 Selectivity Index (IC50 ratio) [1]: >100
IC50 [2]: > 100 µM

SMILES: CCOC(=O)Cc1cc(-c2ccc(S(C)(=O)=O)cc2)n(-c2ccccc2)c1C [Compound 1b, Ethyl 2-[2-methyl-5-(4-methylsulphonyl)phenyl-1-phenyl-1H-pyrrol-3-yl]acetate, reference compound]
COX-1/COX-2 Selectivity Index (IC50 ratio) [1]: >2500
inhibition in vivo at 20 mg/kg [3, 9]: 18%
inhibition in vivo at 20 mg/kg [3, 10]: 30%
IC50 [2]: > 100 µM
inhibition in vivo at 20 mg/kg [4]: 10%

SMILES: Cc1ccc(-n2c(-c3ccc(S(C)(=O)=O)cc3)cc(CC(=O)O)c2C)cc1 [Compound 2a, 2-[1-(4-methyl)phenyl-2-methyl-5-(4-methylsulphonyl)phenyl-1H-pyrrol-3-yl]acetic acid]
COX-1/COX-2 Selectivity Index (IC50 ratio) [1]: >200
IC50 [2]: > 100 µM

SMILES: CCOC(=O)Cc1cc(-c2ccc(S(C)(=O)=O)cc2)n(-c2ccc(C)cc2)c1C [Compound 2b, Ethyl 2-[1-(4-methyl)phenyl-2-methyl-5-(4-methylsulphonyl)phenyl-1H-pyrrol-3-yl]acetate]
COX-1/COX-2 Selectivity Index (IC50 ratio) [1]: >200
IC50 [2]: > 100 µM

SMILES: Cc1c(CC(=O)O)cc(-c2ccc(S(C)(=O)=O)cc2)n1-c1ccc(C(F)(F)F)cc1 [Compound 3a]
COX-1/COX-2 Selectivity Index (IC50 ratio) [1]: >900
IC50 [2]: > 100 µM

SMILES: CCOC(=O)Cc1cc(-c2ccc(S(C)(=O)=O)cc2)n(-c2ccc(C(F)(F)F)cc2)c1C [Compound 3b, Ethyl 2-[2-methyl-5-(4-methylsulphonyl)phenyl-1-(4-trifluoromethyl)phenyl-1H-pyrrol-3-yl]acetate]
COX-1/COX-2 Selectivity Index (IC50 ratio) [1]: >1600
IC50 [2]: > 100 µM

SMILES: CCCCOC(=O)Cc1cc(-c2ccc(S(C)(=O)=O)cc2)n(-c2ccccc2)c1C [Example 6, n-Butyl[1-phenyl-2-methyl-5-(4-methylsulphonyl)phenyl-1H-pyrrol-3-yl]acetate]
melting point: 124 °C
COX-1/COX-2 Selectivity Index (IC50 ratio) ([5]; Table 2, Formula Ia): >7100

SMILES: CNC(=O)Cc1cc(-c2ccc(S(C)(=O)=O)cc2)n(-c2ccccc2)c1C [Example 13, N-Methyl-[2-methyl-5-(4-methylsulphonyl)phenyl-1-phenyl-1H-pyrrol-3-yl]acetamide]
IC50 [8]: > 100 µM
melting point: 178 to 181 °C
IC50 [5, 12]: 1 µM

SMILES: Cc1c(CC(=O)N(C)C)cc(-c2ccc(S(C)(=O)=O)cc2)n1-c1ccccc1 [Example 15, N,N-Dimethyl-[2-methyl-5-(4-methylsulphonyl)phenyl-1-phenyl-1H-pyrrol-3-yl]acetamide]
IC50 [8]: > 100 µM
melting point: 175 to 179 °C
IC50 [5, 12]: 0.58 µM

SMILES: CCCNC(=O)NCCc1cc(-c2ccc(S(C)(=O)=O)cc2)n(-c2ccccc2)c1C [Example 39, N-[2-(2-Methyl-5-(4-(methylsulphonyl)phenyl)-1-phenyl-1H-pyrrol-3-yl)ethyl]-3-propyl urea]
melting point: 157 to 160 °C

Continued, in another order:

selectivity [5]: > 10000
IC50 [5, 11]: 0.01 µM
SMILES: CCOC(=O)Cc1cc(-c2ccc(S(C)(=O)=O)cc2)n(-c2cccc(F)c2)c1C [Compound 4b, Ethyl 2-[1-(3-fluoro)phenyl-2-methyl-5-(4-methylsulphonyl)phenyl-1H-pyrrol-3-yl]acetate, reference compound]
inhibition in vivo at 20 mg/kg [3, 9]: 28%
inhibition in vivo at 20 mg/kg [3, 10]: 40%
inhibition in vivo at 20 mg/kg [4]: 30%

selectivity [5]: > 5000
IC50 [5, 11]: 0.02 µM
SMILES: CCOC(=O)Cc1cc(-c2ccc(S(C)(=O)=O)cc2)n(-c2ccc(F)c(F)c2)c1C [Compound 5b, Ethyl 2-[1-(3,4-difluoro)phenyl-2-methyl-5-(4-methylsulphonyl)phenyl-1H-pyrrol-3-yl]acetate, reference compound]
Edema 0-2 hrs MPE [6]: 8%
Edema 0-6 hrs MPE [6]: 6%
Analgesia 0-2 hrs MPE [7]: 9%
Analgesia 0-6 hrs MPE [7]: 12%
inhibition in vivo at 20 mg/kg [3, 9]: 30%
inhibition in vivo at 20 mg/kg [3, 10]: 36%
inhibition in vivo at 20 mg/kg [4]: 30%
